Assay results as given in article PMC13172357 (Nature Communications, 2026).

What was measured:
Panc89 cells [1] = assay: Total proteome analysis, DIA mass spectrometry, Panc89 cells; format: cell-based, H. sapiens; conditions: DIA Panc89, 1 µM
Experimental: (§1) Following treatment, cells were harvested, washed twice with PBS, and pellets were flash frozen in liquid nitrogen before being stored at −80 °C. Samples were prepared using the single-pot, solid-phase-enhanced sample-preparation (SP3) strategy. All buffers and solutions were prepared with mass spectrometry (MS)-grade water (Honeywell). Cell pellets were taken up in 100 µL 1x sample buffer (50 mM Hepes pH 8.0, 1% (wt/v) SDS, 1% (v/v) NP-40, 10 mM TCEP, 40 mM chloroacetamide) and samples were heated at 90 °C for 5 min prior to sonication with a Bioruptor UCD-300 (Diagenode) for ten cycles of 1 min pulse and 30 s pause at high power. The samples were then supplemented with Benzonase (20 U/sample) and sonified for 5 min in a water bath (Bandelin) followed by 30 min incubation at […].
The protein extracts were then centrifuged (20000 ×g, RT, 40 min) and the protein concentration of the cleared lysates was determined using the Pierce 660 nm Protein Assay Reagent (#22660; Thermo Scientific) with the Ionic Detergent Compatibility Reagent (#22663; Thermo Scientific) according to the manufacturers’ instructions. Next, 15 µg of total protein per sample in a volume of 100 µL sample buffer was transferred to a 500 µL 96-well plate and treated with 7 U of benzonase (#71206; Merck Millipore) in dilution buffer (20 mM Hepes pH 8.0, 2 mM MgCl2) at 37 °C for 30 min with agitation at 1500 rpm. […]

Panc89 cells [2] = assay: Confluence measurement (cell growth), Panc89; format: cell-based, human; conditions: Panc89, 1-10 µM, 72 h, 25 mM or 5 mM D-glucose
USP7 = molecular target: T1, USP7 (Homo sapiens, UniProt Q93009); assay: Immunofluorescence staining of USP7, Panc89 cells; format: cell-based; conditions: Panc89, 1 µM, 24 h
T1 construct: allowed the analysis of endogenous USP7 degradation in both cell lines; endogenous in cells; host or cells: Panc89 (PDAC) and Ma-Mel-47 (melanoma) cells
Experimental: Panc89 cells were seeded on 96-well plates (89626, Ibidi) and treated with either DMSO or compound for the indicated time and concentration. Cells were then fixed with 4% PFA in PBS for 20 min, permeabilized with 0.1% Triton X-100 in PBS for 10 min and incubated in blocking buffer containing 2% BSA in PBS for 1 h. Three 10 min washes with PBS were performed between different steps. Cells were treated with primary antibody anti-USP7 (ab190183, Abcam, rabbit, 1:500) in blocking solution for 1 h at RT. […] Finally, cells were stained with DAPI (Invitrogen, 1 µg/mL) in PBS for 10 min and mounted with aqueous mounting medium (50001, Ibidi) for microscopy. Plates were imaged on a fully automated inverted EVOS M7000 microscope system (Invitrogen) with X-Apo 20x air objective (0.8 NA, Olympus, AMEP4906) using DAPI (AMEP4950), GFP (AMEP4951), RFP (AMEP4952), and Cy5 (AMEP4956) LED light cubes. Images were captured using a high-sensitivity 3.2 MP monochrome CMOS camera and were processed with Omero (v. web 5.28.0).

Panc89 cells [3] = assay: Total proteome analysis, DDA mass spectrometry, Panc89 cells; format: cell-based, H. sapiens; conditions: DDA Panc89, 1 µM
Experimental: as §1
(§2) The protein extracts were then centrifuged (20000 ×g, RT, 40 min) and the protein concentration of the cleared lysates was determined using the Pierce 660 nm Protein Assay Reagent (#22660; Thermo Scientific) with the Ionic Detergent Compatibility Reagent (#22663; Thermo Scientific) according to the manufacturers’ instructions. Next, 15 µg of total protein per sample in a volume of 100 µL sample buffer was transferred to a 500 µL 96-well plate and treated with 7 U of benzonase (#71206; Merck Millipore) in dilution buffer (20 mM Hepes pH 8.0, 2 mM MgCl2) at 37 °C for 30 min with agitation at 1500 rpm. After Benzonase treatment samples were heated to 90 °C for 5 min and after cooling down to room temperature, iodoacetamide to a final concentration of 10 mM was added for complete alkylation of cysteines (37 °C, 15 min, 1000 rpm, in the dark).
(§3) Then, 3 µL of a 50 µg/µL 1:1 mixture of hydrophilic (#45152105050250) and hydrophobic (#65152105050250) carboxylate modified Sera-Mag SpeedBeads (Cytiva), that were washed twice with MS-grade water, were added to the samples. The next steps were carried out at room temperature unless noted otherwise. Afterwards, the samples were mixed shortly (1 min, 1000 rpm) and collected by short centrifugation (10 s, 200 ×g). […]

[4] = molecular target: T2, NanoLuc-USP7 and HaloTag-VHL (Homo sapiens, UniProt P40337+Q93009); assay: Cellular ternary complex formation assay (NanoBRET), HEK293T cells; format: cell-based; conditions: for Ternary complex induction (in words): NanoBRET
T2 construct: expressed in transfected cells; host or cells: HEK293T, transient transfection (FuGENE HD)
Experimental: The assay was performed as described step-by-step elsewhere. USP7 (NanoLuc-USP7) and VHL (HaloTag-VHL) were cloned in frame with N-terminal NanoLuc or HaloTag, respectively. For transfections, HEK293T cells were diluted in Opti-MEM medium without phenol red (Life Technologies) to 4×10^5 cells/mL and 9 µL were pipetted into each well of a white 384-well plate (Greiner 781207). 1 mL transfection mix was prepared containing 30 µL FuGENE HD (Promega, E2312) and 8 µL of each plasmid, incubated 20 min at RT and 1 µL were pipetted into each well leading to the total assay volume of 10 µL. […] 2 h prior to BRET measurements, the compounds were titrated to the cells using an Echo acoustic dispenser and the cells were incubated further at 37 °C and 5% CO2 to allow complex formation. NanoBRET Nano-Glo substrate and Extracellular NanoLuc Inhibitor (Promega, N2540) were then added as per the manufacturer’s protocol, and filtered luminescence was recorded on a PHERAstar FSX plate reader (BMG Labtech) equipped with a luminescence filter pair (donor: 450 nm BP filter; acceptor: 610 nm LP filter). Data were analyzed using GraphPad Prism 10 software.

Ma-Mel-47 cells = assay: Total proteome analysis, DIA mass spectrometry, Ma-Mel-47 cells; format: cell-based, H. sapiens; conditions: DIA Ma-Mel-47, 1 µM
Experimental: as §1, §2, §3

T2 sequence (Q93009 whole entry): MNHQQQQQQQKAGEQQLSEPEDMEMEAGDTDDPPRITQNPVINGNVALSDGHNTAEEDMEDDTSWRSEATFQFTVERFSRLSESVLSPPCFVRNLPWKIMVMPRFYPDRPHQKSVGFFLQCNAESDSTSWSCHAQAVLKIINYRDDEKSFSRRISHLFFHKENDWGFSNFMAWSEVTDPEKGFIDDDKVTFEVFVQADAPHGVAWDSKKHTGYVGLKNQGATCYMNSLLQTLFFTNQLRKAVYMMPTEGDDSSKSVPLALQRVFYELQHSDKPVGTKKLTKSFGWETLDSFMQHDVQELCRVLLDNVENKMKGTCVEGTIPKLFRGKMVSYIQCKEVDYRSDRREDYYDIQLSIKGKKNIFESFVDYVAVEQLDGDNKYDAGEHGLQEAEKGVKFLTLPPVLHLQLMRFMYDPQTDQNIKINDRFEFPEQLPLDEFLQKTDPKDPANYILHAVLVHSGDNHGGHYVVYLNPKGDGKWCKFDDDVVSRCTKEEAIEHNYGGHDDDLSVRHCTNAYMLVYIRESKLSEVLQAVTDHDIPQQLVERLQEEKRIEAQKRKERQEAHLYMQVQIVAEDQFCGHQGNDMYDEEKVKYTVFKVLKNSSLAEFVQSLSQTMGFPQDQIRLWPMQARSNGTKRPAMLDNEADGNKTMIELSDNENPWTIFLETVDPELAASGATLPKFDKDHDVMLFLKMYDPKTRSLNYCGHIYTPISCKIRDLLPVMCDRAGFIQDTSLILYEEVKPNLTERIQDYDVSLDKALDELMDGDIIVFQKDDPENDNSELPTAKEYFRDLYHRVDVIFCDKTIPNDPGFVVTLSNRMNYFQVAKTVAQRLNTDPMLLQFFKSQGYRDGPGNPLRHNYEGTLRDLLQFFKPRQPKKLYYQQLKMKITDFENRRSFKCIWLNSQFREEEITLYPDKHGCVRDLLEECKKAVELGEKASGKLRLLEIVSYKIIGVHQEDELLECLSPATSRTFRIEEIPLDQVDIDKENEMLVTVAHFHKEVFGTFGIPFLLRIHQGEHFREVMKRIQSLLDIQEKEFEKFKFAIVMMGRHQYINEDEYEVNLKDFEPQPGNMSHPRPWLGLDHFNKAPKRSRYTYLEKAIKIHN
T2 sequence (P40337 whole entry): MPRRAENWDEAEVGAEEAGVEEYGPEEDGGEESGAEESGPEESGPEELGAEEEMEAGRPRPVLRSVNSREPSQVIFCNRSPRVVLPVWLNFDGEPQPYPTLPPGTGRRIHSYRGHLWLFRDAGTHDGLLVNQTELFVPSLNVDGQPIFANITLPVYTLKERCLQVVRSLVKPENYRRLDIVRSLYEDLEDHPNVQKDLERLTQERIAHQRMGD
T2 sequence (Q15370 whole entry partner): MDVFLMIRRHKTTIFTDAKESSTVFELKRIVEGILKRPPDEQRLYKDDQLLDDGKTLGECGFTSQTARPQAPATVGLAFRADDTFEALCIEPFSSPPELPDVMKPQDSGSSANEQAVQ
T2 sequence (Q15369 whole entry partner): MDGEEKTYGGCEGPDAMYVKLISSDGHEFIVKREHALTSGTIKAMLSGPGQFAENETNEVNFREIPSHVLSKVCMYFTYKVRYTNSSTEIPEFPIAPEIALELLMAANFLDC
T1 sequence (Q93009 whole entry): as the sequence (Q93009 whole entry) above

| SMILES | Proteins significantly decreased (in words) (Panc89 cells [1]; 6 h) | Cell growth (in words) (Panc89 cells [2]) | USP7 immunofluorescence signal (in words) (USP7) | Proteins significantly decreased (in words) (Panc89 cells [3]; 6 h) | Reduction of USP7 protein levels (Panc89 cells [3]; after three days) | EC50 ([4]; compound 2 h prior BRET measurement, read-out: EC50 (half-maximal ternary complex formation concentration)) [nM] | USP7 protein level change (in words) (Ma-Mel-47 cells; 6 h) | USP7 protein level change (in words) (Ma-Mel-47 cells; 24 h) | Ternary complex induction (in words) [4] | Changes to the proteome (in words) (Ma-Mel-47 cells; 72 h) | Changes to the proteome (in words) (Panc89 cells [1]; 72 h) |
| --- | --- | --- | --- | --- | --- | --- | --- | --- | --- | --- | --- |
| Cc1ncsc1-c1ccc([C@H](C)NC(=O)[C@@H]2C[C@@H](O)CN2C(=O)[C@@H](NC(=O)[C@H]2CC[C@H](C(=O)N3CCN(c4ccc(-n5ncc6c(=O)n(CC7(O)CCN(C(=O)C[C@@H](C)c8ccccc8)CC7)cnc65)cc4)CC3)CC2)C(C)(C)C)cc1 [NK250] | USP7 was the only protein that was significantly decreased | not affected | strongly reduced | USP7 was the only protein significantly decreased | more than 100 fold | 58 | – | – | – | – | – |
| Cc1ncsc1-c1ccc([C@H](C)NC(=O)[C@@H]2C[C@@H](O)CN2C(=O)[C@@H](NC(=O)C23C4C5C2C2C3C4C52C(=O)N2CCC(C3CCN(c4ccc(-n5ncc6c(=O)n(CC7(O)CCN(C(=O)C[C@@H](C)c8ccccc8)CC7)cnc65)cc4)CC3)CC2)C(C)(C)C)cc1 (stereo partly drawn) [NK266] | – | – | – | – | – | – | only minimal reduction | the most decreased protein | did not increase the BRET signal to the same level | – | – |
| Cc1ncsc1-c1ccc(CNC(=O)[C@@H]2C[C@H](O)CN2C(=O)[C@@H](NC(=O)[C@H]2CC[C@H](C(=O)N3CCN(c4ccc(-n5ncc6c(=O)n(CC7(O)CCN(C(=O)C[C@@H](C)c8ccccc8)CC7)cnc65)cc4)CC3)CC2)C(C)(C)C)cc1 [NK245] | – | – | – | – | – | – | – | – | neither the negative control NK245 nor the VHL ligand VH298 induced a ternary complex | only showed minimal changes to the proteome | only showed minimal changes to the proteome |
